In PMC12299463, “Cladolosides of Groups S and T: Triterpene Glycosides from the Sea Cucumber Cladolabes schmeltzii with Unique Sulfation; Human Breast Cancer Cytotoxicity and QSAR” (Marine Drugs, 2025):
Where two headings read alike, the source gives them in different places.

Tests used:
[1] = tested on: MCF-7 human breast cancer cells; experiment: cells; assay type: cell-based; conditions: for Selectivity Index (SI), MCF-7: ratio of IC50 for healthy (MCF-10A) and MCF-7 cells;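 for all read-outs here: IC50 values, including those behind the selectivity ratio, derive from formazan absorbance at 570 nm, tested in triplicate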
[2] = tested on: MCF-10A non-tumor mammary epithelial cell line; experiment: in vitro; assay type: cell-based, human
[3] = tested on: MDA-MB-231 triple-negative breast cancer cells; experiment: cells; assay type: cell-based, human; conditions: for Selectivity Index (SI), MDA-MB-231: ratio of IC50 for healthy (MCF-10A) and MDA-MB-231 cells
[4] = tested on: T-47D human breast cancer cells; experiment: cells; assay type: cell-based; conditions: for Selectivity Index (SI), T-47D: ratio of IC50 for healthy (MCF-10A) and T-47D cells;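 for all read-outs here: cell viability read as absorbance of formazan dye at 570 nm, each experiment run in triplicate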
human erythrocytes = experiment: Hemolytic activity against human erythrocytes; assay type: cell-based; conditions: for ED50, Erythrocytes (hemolytic activity): 1 h at 37 °C
Experimental: A total of 450 g of human blood (B(III) Rh+) was used to obtain erythrocytes by centrifuging three times for 5 min with phosphate-buffered saline (PBS) (pH 7.4) at 4 °C on a centrifuge LABOFUGE 400R (Heraeus, Hanau, Germany). Ice-cold PBS (pH 7.4) was used for resuspension of erythrocyte residue to a final optical density of 1.5 at 700 nm. Then, 20 µL of tested compound solutions or control (cucumarioside A0-1 [15]) were added to 180 µL of erythrocyte suspension in V-bottom 96-well plates and incubated for 1 h at 37 °C. After centrifugation (900 g, 10 min, laboratory centrifuge LMC-3000 (Biosan, Riga, Latvia)), 100 µL of supernatant was transferred into new flat plates. The values of erythrocyte lysis were measured on microplate photometer Multiskan FC (Thermo Fisher Scientific, Waltham, MA, USA) at λ = 570 nm as hemoglobin concentration in supernatant. […] All the experiments were carried out in triple repetitions, p < 0.05.

[5] = MTT assay, MCF-7, read-out: Cytotoxicity, IC50, MCF-7
[6] = MTT assay, MCF-10A, read-out: Cytotoxicity, IC50, MCF-10A
[7] = MTT assay, MDA-MB-231, read-out: Cytotoxicity, IC50, MDA-MB-231
[8] = MTT assay, T-47D, read-out: Cytotoxicity, IC50, T-47D

Compound	IC50 [1, 5] [µM]	IC50 [2, 6] [µM]	IC50 [3, 7] [µM]	Selectivity Index (SI), MDA-MB-231 [3]	IC50 [4, 8] [µM]	Selectivity Index (SI), T-47D [4]	Hemolytic (membranolytic) activity, in words (human erythrocytes)	ED50, Erythrocytes (hemolytic activity) (human erythrocytes) [µM]	also measured
C=C(C)CC[C@@H](OC(C)=O)[C@]1(C)OC(=O)C23CC=C4[C@@H](CC[C@H]5C(C)(C)[C@@H](O[C@@H]6OC[C@@H](O[C@@H]7OC[C@@H](O)[C@H](O[C@@H]8O[C@H](CO)[C@@H](O)[C@H](O)[C@H]8O)[C@H]7O)[C@H](O)[C@H]6O[C@@H]6O[C@H](C)[C@@H](O[C@@H]7OC[C@@H](O)[C@H](O[C@@H]8O[C@H](CO)[C@@H](O)[C@H](OC)[C@H]8O)[C@H]7O)[C@H](O)[C@H]6O)CC[C@]45C)[C@]2(C)C[C@H](OC(C)=O)[C@@H]31 (stereo partly shown) [Cladoloside D (18), Cladoloside D]	15.3 ± 0.94	> 20	2.98 ± 0.24	>6.7	14.9 ± 0.85	>1.34	high activity	0.29	Selectivity Index (SI), MCF-7 [1]: >1.31; Toxicity to normal mammary cells MCF-10A, in words ([2]; MCF-10A): non-toxic; ED50, Erythrocytes (hemolytic activity) (human erythrocytes; listed as D (18)): 0.29 ± 0.03 µM
C=C(C)CCC[C@]1(C)OC(=O)C23CC=C4[C@@H](CC[C@H]5C(C)(C)[C@@H](O[C@@H]6OC[C@@H](O[C@@H]7O[C@H](CO)[C@@H](O)[C@H](O[C@@H]8O[C@H](CO)[C@@H](O)[C@H](OC)[C@H]8O)[C@H]7O)[C@H](O)[C@H]6O[C@@H]6O[C@H](C)[C@@H](O[C@@H]7OC[C@@H](O)[C@H](O[C@@H]8O[C@H](CO)[C@@H](O)[C@H](O)[C@H]8O)[C@H]7O)[C@H](O)[C@H]6O)CC[C@]45C)[C@]2(C)CC(=O)[C@@H]31 (stereo partly shown) [Cladoloside P2 (41), Cladoloside P2]	16.3 ± 1.03	11.1 ± 0.74	6.92 ± 0.44	1.60	10.6 ± 0.61	1.05	strong hemolytics	0.17 ± 0.02	Selectivity Index (SI), MCF-7 [1]: 0.68
CO[C@@H]1[C@@H](O)[C@H](O[C@@H]2[C@@H](O)[C@H](O[C@H]3[C@H](O)[C@@H](O)[C@H](O[C@H]4[C@H](O[C@H]5CC[C@]6(C)C7=CCC89C(=O)O[C@@](C)([C@@H](CCC(C)C)OC(C)=O)[C@H]8[C@@H](OC(C)=O)C[C@@]9(C)[C@@H]7CC[C@H]6C5(C)C)OC[C@@H](O)[C@@H]4O)O[C@@H]3C)OC[C@H]2O)O[C@H](CO)[C@H]1O (stereo partly shown) [A1 (5)]								6.17 ± 0.51	IC50 [1]: > 20 µM; IC50 [2]: > 20 µM; IC50 [3]: > 20 µM; IC50 [4]: > 20 µM
C=C(C)CC[C@@H](OC(C)=O)[C@]1(C)OC(=O)C23CC=C4[C@@H](CC[C@H]5C(C)(C)[C@@H](O[C@@H]6OC[C@@H](O)[C@H](O)[C@H]6O[C@@H]6O[C@H](C)[C@@H](O[C@@H]7OC[C@@H](O)[C@H](O[C@@H]8O[C@H](CO)[C@@H](O)[C@H](OC)[C@H]8O)[C@H]7O)[C@H](O)[C@H]6O)CC[C@]45C)[C@]2(C)C[C@H](OC(C)=O)[C@@H]31 (stereo partly shown) [A2 (6), cladoloside A2]	> 20	> 20	> 20		> 20		moderate activity	2.78 ± 0.32	
C=C(C)CC[C@@H](OC(C)=O)[C@]1(C)OC(=O)C23CC=C4[C@@H](CC[C@H]5C(C)(C)[C@@H](O[C@@H]6OC[C@@H](O)[C@H](O)[C@H]6O[C@@H]6O[C@H](C)[C@@H](O[C@@H]7O[C@H](CO)[C@@H](O)[C@H](O[C@@H]8O[C@H](CO)[C@@H](O)[C@H](OC)[C@H]8O)[C@H]7O)[C@H](O)[C@H]6O)CC[C@]45C)[C@]2(C)C[C@H](OC(C)=O)[C@@H]31 (stereo partly shown) [A6 (10), cladoloside A6]	> 20	> 20	> 20		> 20			3.43 ± 0.22	
C=C(C)CC[C@@H](OC(C)=O)[C@]1(C)OC(=O)C23CC=C4[C@@H](CC[C@H]5C(C)(C)[C@@H](O[C@@H]6OC[C@@H](O[C@@H]7O[C@H](CO)[C@@H](O)[C@H](O)[C@H]7O)[C@H](O)[C@H]6O[C@@H]6O[C@H](C)[C@@H](O[C@@H]7OC[C@@H](O)[C@H](O[C@@H]8O[C@H](CO)[C@@H](O)[C@H](OC)[C@H]8O)[C@H]7O)[C@H](O)[C@H]6O)CC[C@]45C)[C@]2(C)C[C@H](OC(C)=O)[C@@H]31 (stereo partly shown) [Cladoloside B2 (12), cladoloside B2]	14.5 ± 0.48	12.2 ± 1.2	3.92 ± 0.35	3.12	12.5 ± 0.96	0.98	high activity		Selectivity Index (SI), MCF-7 [1]: 0.84; ED50, Erythrocytes (hemolytic activity) (human erythrocytes; listed as B2 (12)): 0.31 ± 0.02 µM; ED50, Erythrocytes (hemolytic activity) (human erythrocytes; listed as cladoloside B2 (12)): 0.31 µM
CO[C@@H]1[C@@H](O)[C@H](O[C@@H]2[C@@H](O)[C@H](O[C@H]3[C@H](O)[C@@H](O)[C@H](O[C@H]4[C@H](O[C@H]5CC[C@]6(C)C7=CCC89C(=O)O[C@@](C)([C@@H](CCC(C)C)OC(C)=O)[C@H]8[C@@H](OC(C)=O)C[C@@]9(C)[C@@H]7CC[C@H]6C5(C)C)OC[C@@H](O[C@@H]5O[C@H](CO)[C@@H](O)[C@H](O)[C@H]5O)[C@@H]4O)O[C@@H]3C)OC[C@H]2O)O[C@H](CO)[C@H]1O (stereo partly shown) [Cladoloside B1 (11), cladoloside B1]	> 20	> 20	10.1 ± 1	>1.98	13 ± 1.07	>1.54			ED50, Erythrocytes (hemolytic activity) (human erythrocytes; listed as B1 (11)): 0.55 ± 0.04 µM; ED50, Erythrocytes (hemolytic activity) (human erythrocytes; listed as cladoloside B1 (11)): 0.55 µM
COC1C(O)C(CO)OC(OC2C(O)COC(OC3C(C)OC(OC4C(OC5CCC6(C)C7=CCC89C(=O)OC(C)(CC=CC(C)(C)O)C8C(=O)CC9(C)C7CCC6C5(C)C)OCC(O)C4O)C(O)C3O)C2O)C1O (stereo not shown) [A5 (9), cladoloside A5]	> 20	> 20	> 20		> 20			7.19 ± 0.53	ED50, Erythrocytes (hemolytic activity) (human erythrocytes; listed as cladoloside A5 (9)): 7.19 µM
cladoloside C [Cladoloside C (13)]	> 20	> 20	13 ± 0.8	>1.54	12.4 ± 0.66	>1.61	high activity		ED50, Erythrocytes (hemolytic activity) (human erythrocytes; listed as C (13)): 0.44 ± 0.05 µM; ED50, Erythrocytes (hemolytic activity) (human erythrocytes; listed as cladoloside C (13)): 0.44 µM
CO[C@@H]1[C@@H](O)[C@H](O[C@@H]2[C@@H](O)[C@H](O[C@@H]3CO[C@@H](O[C@H]4CC[C@]5(C)C6=CCC78C(=O)O[C@@](C)([C@@H](CCC(C)C)OC(C)=O)[C@H]7[C@@H](OC(C)=O)C[C@@]8(C)[C@@H]6CC[C@H]5C4(C)C)[C@H](O[C@@H]4O[C@H](C)[C@@H](O[C@@H]5OC[C@@H](O)[C@H](O[C@@H]6O[C@H](CO)[C@@H](O)[C@H](OC)[C@H]6O)[C@H]5O)[C@H](O)[C@H]4O)[C@H]3O)O[C@H](C)[C@H]2O)O[C@H](CO)[C@H]1O (stereo partly shown) [Cladoloside H1 (26), Cladoloside H1]	15.9 ± 1.14	> 20	2.47 ± 0.32		13.2 ± 0.72			0.21 ± 0.02	Toxicity to normal mammary cells MCF-10A, in words ([2]; MCF-10A): non-toxic
C=C(C)CC[C@@H](OC(C)=O)[C@]1(C)OC(=O)C23CC=C4[C@@H](CC[C@H]5C(C)(C)[C@@H](O[C@@H]6OC[C@@H](O[C@@H]7O[C@H](CO)[C@@H](O)[C@H](O)[C@H]7O)[C@H](O)[C@H]6O[C@@H]6O[C@H](C)[C@@H](O[C@@H]7OC[C@@H](O)[C@H](O[C@@H]8O[C@H](COS(=O)(=O)[O-])[C@@H](O)[C@H](OC)[C@H]8O)[C@H]7O)[C@H](O)[C@H]6O)CC[C@]45C)[C@]2(C)C[C@H](OC(C)=O)[C@@H]31.[Na+] (stereo partly shown) [I2 (29), cladoloside I2]								4.24 ± 0.31	IC50 [1]: > 20 µM; IC50 [2]: > 20 µM; IC50 [3]: > 20 µM; IC50 [4]: > 20 µM; ED50, Erythrocytes (hemolytic activity) (human erythrocytes; listed as cladoloside I2 (29)): 4.24 µM
C=C(C)CCC[C@]1(C)OC(=O)C23CC=C4[C@@H](CC[C@H]5C(C)(C)[C@@H](O[C@@H]6OC[C@@H](O)[C@H](O)[C@H]6O[C@@H]6O[C@H](C)[C@@H](O[C@@H]7OC[C@@H](O)[C@H](O[C@@H]8O[C@H](CO)[C@@H](O)[C@H](OC)[C@H]8O)[C@H]7O)[C@H](O)[C@H]6O)CC[C@]45C)[C@]2(C)C[C@H](OC(C)=O)[C@@H]31 (stereo partly shown) [A3 (7), cladoloside A3]	> 20	> 20	> 20		> 20		low hemolytic activity	7.58 ± 0.69	ED50, Erythrocytes (hemolytic activity) (human erythrocytes; listed as cladoloside A3 (7)): 7.58 µM
